The source of these data is patent US10101324B2, “Non-competitive immunoassays to detect small molecules using nanopeptamers” (priority 2012, dated 2018).

The subject of experiment [1] is anti-molinate monoclonal antibody (MoAb 14D7). The experiment can be described thus: Cross-reactivity of the pA-Nanopeptamer noncompetitive ELISA with related thiocarbamate pesticides. It counts as binding. Background: An ELISA detects its analyte on a solid surface through an enzyme-linked reagent.
The subject of a further experiment is MoAb 14D7. Particulars: molinate; same antibody MoAb 14D7; Rufo et al. 2004; cited from earlier work.
In the next experiment the test system is MoAb 5.6. Particulars: clomazone, Carlomagno et al. 2010; cited from earlier work.

In the case of `CCN(CC)C(=O)SCc1ccc(Cl)cc1` [thiobencarb], the “Cross reactivity, pA-Nanopeptamer assay” value in experiment [1] stood at 0%.

Take `CCCCN(CC)C(=O)SCCC` [Pebulate]: the “Cross reactivity, pA-Nanopeptamer assay” value in experiment [1] worked out at 6%.

As for `CCSC(=O)N1CCCCCC1` [Molinate], the “IC50 of the competitive ELISA” value in the experiment on MoAb 14D7 is 0.069 ± 0.0005 µg/mL.

With `CC1(C)CON(Cc2ccccc2Cl)C1=O` [clomazone], the “IC50 of the competitive format” value in the experiment with MoAb 5.6 was 0.028 ± 0.0011 µg/mL.
